B1: abciximab (antibody, chains of the INN, looked up, V domains shown)
VH: EVQLQQSGTVLARPGASVKMSCEASGYTFTNYWMHWVKQRPGQGLEWIGAIYPGNSDTSYIQKFKGKAKLTAVTSTTSVYMELSSLTNEDSAVYYCTLYDGYYVFAYWGQGTLVTVSA
VL: EIVLTQSPVTLSVTPGDSVSLSCRASRDISNNLHWFQQTSHESPRLLIKYASQSMSGIPSRFSGSGSGTDFTLSINSVETEDFGMYFCQQTNSWPYTFGGGTKLEIK
modifications: Fab

Experiments:
Type in all cases: cell-based, human
[1] = system: re-calcified citrated blood clotted with thrombin; experiment: T2MR monitoring of fibrinolysis of thrombin-clotted blood; conditions: tPA added 30 minutes after 3 U/ml thrombin
Description: Blood clotting was initiated by addition of 2 μL of a 0.2 M CaCl2 solution and 2 μL of thrombin (Sigma-Aldrich, St. Louis, Mo., final concentration 0.1-3.0 U/ml) to 34 μL of blood in a 200 μL PCR tube (Eppendorf, Hauppauge, N.Y.). All components were pre-warmed for 1 min at 37° C. before mixing. Samples were mixed by three aspiration and dispersion cycles using a pipette, then put into the T2MR reader for measurement. Typical run length was 30 min with a 10 s sampling rate. For some experiments, data collection time was extended to 1 hr.
To establish T2MR signatures for fibrinolysis, tissue plasminogen activator (tPA, Alteplase, Genentech, South San Francisco, Calif.) was added to samples clotted by thrombin. Blood clotting was initiated as described above, and the sample was incubated for […] to allow for complete clot contraction. Then, 0.5-1 μM tPA was added to clotted and contracted samples. Care was taken not to disturb clots, which were usually attached to the tube wall. The pipette tip was carefully placed into the visible serum layer on the tube side opposite to the contracted clot, and 3 μL of tPA solution was added with a single dispensing of the pipettor. The tPA solutions were made from a stock solution prepared according to manufacturer instructions using 0.15 M sodium chloride, pH 7.4.
We measured the dependencies of the T2MR signals during clotting of re-calcified citrated blood samples from healthy donors initiated by adding 3 U/ml thrombin. Thrombin activates platelets and cleaves fibrinogen to form a three-dimensional fibrin network stabilized by factor XIIIa. Addition of thrombin led to rapid formation of a gelatinous meshwork that filled the sample volume accompanied by a small, rapid decrease in the T2MR signal over tens of seconds due to the sample transitioning from a liquid to gel state. […]
We then assessed the sensitivity of the T2MR platform to fibrinolysis by adding tissue-type plasminogen activator (tPA) to the clotted samples 30 minutes after thrombin.

citrated blood [2] = experiment: T2MR clot strength (ΔT2) after calcium and kaolin activation; conditions: ex vivo addition at 4 or 8 μg/ml; 13 minutes after activation; samples from 3 healthy donors
Description: (§1) A 0.5 mg/ml solution of abciximab was prepared by diluting the stock 10 mg/5 ml solution by […] in saline. The abciximab-treated blood samples were incubated for at least 5 min prior to clotting. Clotting was initiated by adding 2 μL 0.2 M CaCl2 and 2 μL TEG kaolin to 34 μL of abciximab-treated blood sample. To compare the T2MR signal to TEG MA, a ΔT2 parameter was calculated by taking the difference in T2 between the upper and middle peaks at a time point 13 min after adding calcium and kaolin. The TEG MA values were measured on the same samples following manufacturer instructions.
(§2) For comparison between T2MR and TEG, calcium kaolin activation of citrated blood was used and normal donor samples were treated with various amounts of abciximab, an inhibitor of the platelet glycoprotein allbβ3 receptor that binds fibrin and is essential for clot contraction.

citrated blood [3] = experiment: Thromboelastography maximum amplitude (TEG MA) after calcium and kaolin activation; conditions: ex vivo addition at 4 or 8 μg/ml; samples from 3 healthy donors
Description: as §1, §2

Molecule	T2 value of the middle peak after tPA addition [1]	T2 value of the third peak after tPA addition (persisted) [1] [ms]	T2 value of the upper peak after tPA addition [1]	ΔT2 (difference between upper and middle T2 values in the T2MR signature) (citrated blood [2]) [ms]	TEG MA (citrated blood [3])
Alteplase [tPA]	decreased from 250 to 175	~100	decreased rapidly	–	–
B1	–	–	–	< 100	less than 40

Reference: patent US20170045494A1, “SYSTEMS AND METHODS FOR IDENTIFYING COAGULOPATHIES” (T2 Biosystems, Inc., priority 2014, published 2017)
